In assay [1] the target is PRMT5/MEP50 (Homo sapiens, UniProt O14744). Put plainly: MTase-Glo methyl transferase assay, Method B (FL-Histone H2A, 1 µM MTA, 1 h pre-incubation). Particulars: read-out: PRMT5 MTase Glo Ki (nM, Meth. B). Also on record: purchased Reaction Biology Corp RD-11-292. The format is biochemical. On the procedure:
Method B: The PRMT5 inhibitory activity of test compounds was determined using the MTase-Glo™ assay (Promega), which monitors the product (S-adenosyl homocysteine or SAH) of methyltransferase reactions. The PRMT5 MTase-Glo assay was conducted in a 384-well white ProxiPlate (PerkinElmer) in a total volume of 16 µL. The PRMT5 enzymatic reaction (in 8 µL) contained 4 nM PRMT5/MEP50 (Reaction Biology Corp, catalog no.: RD-11-292), 5 µM S-adenosyl methionine (SAM, Promega), 2.5 µM FL-Histone H2A (BPS Bioscience, catalog no.: 52021), 1 µM 5′-methylthioadenosine (MTA, Sigma) and ½ log serially diluted compounds in a reaction buffer of 50 mM Tris (pH 8.0), 50 mM NaCl, 0.01% Tween 20, 0.01% BSA, and 1 mM TCEP. Test compounds were pre-incubated with PRMT5/MEP50, SAM, and MTA for 1 hour before addition of FL-Histone H2A to initiate the PRMT5 reaction. The reaction was allowed to proceed for 20 hours at room temperature and was then terminated by addition of 1 µL of 9X MTase-Glo™ Reagent (Promega). After a 30-minute incubation at room temperature, 8 µL of MTase-Glo™ Detection Solution (Promega) was added and the plate was incubated at room temperature for an additional 30 minutes. The light signal corresponding to the amount of SAH produced by the PRMT5 reaction was subsequently measured using an Envision multimode reader (PerkinElmer). IC50 and KI values were obtained by analyzing dose-response curves using GraphPad Prism®.

In assay [2] the test system is HCT116 MTAP null cells. Put plainly: HCT116 proliferation assay, MTAP null cells (CellTiter-Glo, 6 days). The format is cell-based. As to conditions: HCT116-MTAP null, 144 h, read-out: Protif_ HCT116-MTAP null IC50. In short, it runs like this:
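RPMI 1640/10% FBS; overnight attachment at 37° C, 5% CO2; 8–9-pt 1:3 titration, top 1 or 10 µM; DMSO ctrl; luminescence readout.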

For 22 molecules, Ki and IC50 results are on record in patent publication US20230159510A1, “NOVEL PRMT5 INHIBITORS” (AMGEN INC., priority 2020, published 2023).

PRMT5/MEP50, sequence (O14744 2-637 limits assumed): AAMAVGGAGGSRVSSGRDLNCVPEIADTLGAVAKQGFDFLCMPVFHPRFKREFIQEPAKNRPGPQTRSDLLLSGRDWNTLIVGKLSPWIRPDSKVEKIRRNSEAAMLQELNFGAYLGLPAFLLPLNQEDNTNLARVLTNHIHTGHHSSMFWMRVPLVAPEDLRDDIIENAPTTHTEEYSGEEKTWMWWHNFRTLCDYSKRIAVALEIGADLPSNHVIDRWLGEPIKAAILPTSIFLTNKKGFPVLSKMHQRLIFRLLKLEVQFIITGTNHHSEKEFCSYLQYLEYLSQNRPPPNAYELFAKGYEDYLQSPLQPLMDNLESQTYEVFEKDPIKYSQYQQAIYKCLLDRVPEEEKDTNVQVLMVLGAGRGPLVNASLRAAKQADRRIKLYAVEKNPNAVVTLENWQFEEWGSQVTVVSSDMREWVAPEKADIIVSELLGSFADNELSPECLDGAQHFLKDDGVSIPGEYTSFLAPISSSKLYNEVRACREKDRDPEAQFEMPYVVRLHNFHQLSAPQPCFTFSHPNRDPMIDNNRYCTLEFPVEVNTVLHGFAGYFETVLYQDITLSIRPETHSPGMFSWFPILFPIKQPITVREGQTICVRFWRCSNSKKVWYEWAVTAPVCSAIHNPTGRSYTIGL
PRMT5/MEP50, sequence (Q9BQA1 2-342 partner limits assumed): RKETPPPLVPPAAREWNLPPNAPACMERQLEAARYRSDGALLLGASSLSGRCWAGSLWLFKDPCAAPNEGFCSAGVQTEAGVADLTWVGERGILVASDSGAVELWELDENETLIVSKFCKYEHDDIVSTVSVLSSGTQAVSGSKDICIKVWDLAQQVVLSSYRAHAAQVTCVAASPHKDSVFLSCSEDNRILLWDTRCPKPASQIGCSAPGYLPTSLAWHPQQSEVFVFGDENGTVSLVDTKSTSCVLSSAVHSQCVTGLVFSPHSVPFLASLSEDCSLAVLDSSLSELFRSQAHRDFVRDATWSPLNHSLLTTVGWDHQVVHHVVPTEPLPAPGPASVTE

For `Cc1cc2cc(C(=O)N(Cc3ccc(N4CCCC4)cc3)CC(C)C)ccc2nc1N` [Example 643, 2-amino-N-isobutyl-3-methyl-N-[(4-pyrrolidin-1-ylphenyl)methyl]quinoline-6-carboxamide], the Ki in assay [1] amounted to 39.6 nM.

As for `Cc1cc2cc(C(=O)N(Cc3ccc(C(F)(F)F)cn3)Cc3ccnn3C)ccc2nc1N` [Example 686, 2-amino-3-methyl-N-[(2-methylpyrazol-3-yl)methyl]-N-[[5-(trifluoromethyl)-2-pyridyl]methyl] quinoline-6-carboxamide], the Ki in assay [1] is 5.12 nM. For the same molecule, the 50% inhibitory concentration (IC50) in assay [2] worked out at 590 nM.

Take `Cc1cc2cc(C(=O)N(Cc3ccc(O)c(F)c3)Cc3ccc(C(F)(F)F)cn3)ccc2nc1N` [Example 662, 2-amino-N-[(3-fluoro-4-hydroxyphenyl)methyl] -3-methyl-N-[ [5-(trifluoromethyl)-2-pyridyl]methyl] quinoline-6-carboxamide]: in assay [1], the Ki is 3.58 nM. In assay [2], the IC50 came out at 180 nM.

On to `Cc1cc2cc(C(=O)N(Cc3cccc(-n4cncn4)c3)CC(C)C)ccc2nc1N` [Example 644, 2-amino-N-isobutyl-3-methyl-N-[[3-(1,2,4-triazol-1-yl)phenyl]methyl] quinoline-6-carboxamide], for which, in assay [1], the inhibition constant Ki was found to be 29.3 nM.

Regarding `C#CCN(Cc1ccc(C(F)(F)F)cn1)C(=O)c1ccc2nc(N)c(C)cc2c1` [Example 655, 2-amino-3-methyl-N-prop-2-ynyl-N-[[5-(trifluoromethyl)-2-pyridyl]methyl] quinoline-6-carboxamide], the Ki in assay [1] fell in the range of 4 to 9 nM. In assay [2], the IC50 is 550 nM.

Take `Cc1cc2cc(C(=O)N(Cc3ccc(C(F)(F)F)cn3)CC3CCCC(O)C3)ccc2nc1N` (stereo not drawn) [Example 678, 2-amino-N-[(3-hydroxycyclohexyl)methyl]-3-methyl-N-[[5-(trifluoromethyl)-2-pyridyl]methyl] quinoline-6-carboxamide]: in assay [1], the Ki is 5.57 nM. Besides, the IC50 in assay [2] turned out to be 500 nM.

`Cc1cc2cc(C(=O)N(Cc3ccc(C(F)(F)F)cn3)C3CC3(C)C)ccc2nc1N` (stereo not drawn) [Example 706, 2-amino-N-(2,2-dimethylcyclopropyl)-3-methyl-N-[[5-(trifluoromethyl)-2-pyridyl]methyl] quinoline-6-carboxamide]: in assay [1], the Ki came out at 31 nM.

For `Cc1cc2cc(C(=O)N(Cc3ccc(C(F)(F)F)cn3)C(C)c3cc[nH]c(=O)c3)ccc2nc1N` (stereo not drawn) [Example 664, 2-amino-3-methyl-N-[1-(2-oxo-1H-pyridin-4-yl)ethyl]-N-[[5-(trifluoromethyl)-2-pyridyl]methyl] quinoline-6-carboxamide], in assay [1], the Ki came out at 9.1 nM. Further, the IC50 in assay [2] amounted to 670 nM.

For the molecule `Cc1cc2cc(C(=O)N(Cc3ccc(C(F)(F)F)cn3)Cc3cccnc3-n3cncn3)ccc2nc1N` [Example 652, 2-amino-3-methyl-N-[[2-(1,2,4-triazol-1-yl)-3-pyridyl]methyl]-N-[[5-(trifluoromethyl)-2-pyridyl]methyl] quinoline-6-carboxamide], the Ki in assay [1] fell in the range of 3 to 7 nM. The IC50 in assay [2] was found to be 160 nM.

In the case of `Cc1cc2cc(C(=O)N(Cc3ccc(C(F)(F)F)cn3)C(C)CC3CC3)ccc2nc1N` (stereo not drawn) [Example 696, 2-amino-N-(2-cyclopropyl-1-methylethyl)-3-methyl-N-[[5-(trifluoromethyl)-2-pyridyl]methyl] quinoline-6-carboxamide], the Ki in assay [1] worked out at 2.19 nM. In addition, the half-inhibitory concentration (IC50) in assay [2] is 200 nM.

For `Cc1cc2cc(C(=O)N(Cc3ccc(C(F)(F)F)cn3)C(CC(N)=O)C3CCOCC3)ccc2nc1N` (stereo not drawn) [Example 682, 2-amino-N-(3-amino-3-oxo-1-tetrahydropyran-4-yl-propyl)-3-methyl-N-[[5-(trifluoromethyl)-2-pyridyl]methyl] quinoline-6-carboxamide], in assay [1], the Ki is 23 nM.

Consider `Cc1cc2cc(C(=O)N(Cc3ccc(C(F)(F)F)cn3)C(C)CC#N)ccc2nc1N` (stereo not drawn) [Example 693, 2-amino-N-(2-cyano-1-methyl-ethyl)-3-methyl-N-[[5-(trifluoromethyl)-2-pyridyl]methyl] quinoline-6-carboxamide], for which, in assay [1], the Ki amounted to 6.14 nM. The IC50 in assay [2] was 97 nM.

With `Cc1cc2cc(C(=O)N(Cc3ccc(C(F)(F)F)cn3)C(C)C(C)C)ccc2nc1N` (stereo not drawn) [Example 642, 2-amino-N-(1,2-dimethylpropyl)-3-methyl-N-[[5-(trifluoromethyl)-2-pyridyl]methyl] quinoline-6-carboxamide], the inhibition constant Ki in assay [1] stood at 2.55 nM. For the same molecule, in assay [2], the IC50 was 86 nM.

Turning to `Cc1cc2cc(C(=O)N(Cc3ccc(C(O)C(F)(F)F)cc3)Cc3ccc(C(F)(F)F)cn3)ccc2nc1N` (stereo not drawn) [Example 660, 2-amino-3-methyl-N-[ [4-(2,2,2-trifluoro-1-hydroxyethyl)phenyl]methyl]-N-[[5-(trifluoromethyl)-2-pyridyl]methyl] quinoline-6-carboxamide], the inhibition constant Ki in assay [1] was 7.14 nM. Moreover, in assay [2], the IC50 amounted to 800 nM.

As for `CNC(=O)c1ccc(CN(Cc2ccc(C(F)(F)F)cn2)C(=O)c2ccc3nc(N)c(C)cc3c2)cc1` [Example 638, 2-amino-3-methyl-N-[[4-(methylcarbamoyl)phenyl]methyl]-N-[[5-(trifluoromethyl)-2-pyridyl]methyl] quinoline-6-carboxamide], the inhibition constant (Ki) in assay [1] came to 1.9 nM. Further, in assay [2], the 50% inhibitory concentration (IC50) amounted to 200 nM.

Take `Cc1cc2cc(C(=O)N(Cc3ccc(C(F)(F)F)cn3)C3CC4(C3)CC(F)(F)C4)ccc2nc1N` [Example 698, 2-amino-N-(2,2-difluorospiro [3.3]heptan-6-yl)-3-methyl-N-[[5-(trifluoromethyl)-2-pyridyl]methyl] quinoline-6-carboxamide]: the Ki in assay [1] is 36.4 nM.

As to `Cc1cc2cc(C(=O)N(Cc3ccc(C(F)(F)F)cn3)C3CC(C#N)C3)ccc2nc1N` (stereo not drawn) [Example 697, 2-amino-N-(3-cyanocyclobutyl)-3-methyl-N-[[5-(trifluoromethyl)-2-pyridyl]methyl] quinoline-6-carboxamide], in assay [1], the Ki came to 36.5 nM.

Take `Cc1cc2cc(C(=O)N(CC#CCO)Cc3ccc(C(F)(F)F)cn3)ccc2nc1N` [Example 658, 2-amino-N-(4-hydroxybut-2-ynyl)-3-methyl-N-[[5-(trifluoromethyl)-2-pyridyl]methyl] quinoline-6-carboxamide]: the Ki in assay [1] was 12.6 nM.

For the molecule `Cc1cc2cc(C(=O)N(Cc3ccc(C(F)(F)F)cn3)C(C)C(C)n3cccn3)ccc2nc1N` (stereo not drawn) [Example 679, 2-amino-3-methyl-N-(1-methyl-2-pyrazol-1-yl-propyl)-N-[[5-(trifluoromethyl)-2-pyridyl]methyl] quinoline-6-carboxamide], the inhibition constant Ki in assay [1] turned out to be 36.8 nM.

For `Cc1cc2cc(C(=O)N(Cc3cncnc3)Cc3ccc(C(F)(F)F)cn3)ccc2nc1N` [Example 626, 2-amino-3-methyl-N-(pyrimidin-5-ylmethyl)-N-((5-(trifluoromethyl)pyridin-2-yl)methyl)quinoline-6-carboxamide], the Ki in assay [1] was found to be 42.7 nM.

For `Cc1cc2cc(C(=O)N(Cc3ccc(C(F)(F)F)cn3)C3CCCC3C#N)cnc2nc1N` (stereo not drawn) [Example 700, 7-amino-N-(2-cyanocyclopentyl)-6-methyl-N-[[5-(trifluoromethyl)-2-pyridyl]methyl]-1,8-naphthyridine-3-carboxamide], the Ki in assay [1] came out at 38.1 nM.

Consider `Cc1cc2cc(C(=O)N(Cc3ccc(C(F)(F)F)cn3)C3CCCC3C#N)ncc2nc1N` (stereo not drawn) [Example 701, 2-amino-N-(2-cyanocyclopentyl)-3-methyl-N-[[5-(trifluoromethyl)-2-pyridyl]methyl]-1,7-naphthyridine-6-carboxamide], for which the Ki in assay [1] stood at 37.2 nM.
